Laboratory results as given in PubChem BioAssay AID248 (DTP/NCI, 2004).
Several values for one entry are separate records, joined by “and”; a condition that tells them apart may be missing. Equal values may be shown once. Inconclusive results and toxic doses are left out.

System: L1210 leukemia ip in BDF1 mice, survival T/C
Experiment: NCI In Vivo Anticancer Drug Screen. Data for tumor model L1210 Leukemia (intraperitoneal) in B6D2F1 (BDF1) mice
Conditions: endpoint: mean survival time, higher = longer survival
Summary of the method: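 Antitumor effect is assessed in tumor-bearing animals. Survival in the compound arm is compared with a vehicle-dosed control arm and expressed as their quotient.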

[1] = dose: 37.5 mg/kg/injection, schedule: Q01DX009 (ip), vehicle: saline
[2] = dose: 100.0 mg/kg/injection, schedule: Q01DX001 (ip), vehicle: saline
[3] = dose: 100.0 mg/kg/injection, schedule: Q01DX001 (ip), vehicle: saline with Tween-80
[4] = dose: 200.0 mg/kg/injection, schedule: Q01DX001 (ip), vehicle: saline with Tween-80
[5] = dose: 100.0 mg/kg/injection, schedule: Q04DX002 (ip), vehicle: saline with Tween-80
[6] = dose: 200.0 mg/kg/injection, schedule: Q04DX002 (ip), vehicle: saline with Tween-80
[7] = dose: 400.0 mg/kg/injection, schedule: Q04DX002 (ip), vehicle: saline with Tween-80
[8] = dose: 100.0 mg/kg/injection, schedule: Q01DX009 (ip), vehicle: Klucel (hydroxypropylcellulose) (HPC)
[9] = dose: 400.0 mg/kg/injection, schedule: Q01DX009 (ip), vehicle: Klucel (hydroxypropylcellulose) (HPC)
[10] = dose: 100.0 mg/kg/injection, schedule: Q04DX003 (ip), vehicle: saline with Tween-80
[11] = dose: 200.0 mg/kg/injection, schedule: Q04DX003 (ip), vehicle: saline with Tween-80
[12] = dose: 400.0 mg/kg/injection, schedule: Q04DX003 (ip), vehicle: saline with Tween-80
[13] = dose: 50.0 mg/kg/injection, schedule: Q01DX001 (ip), vehicle: saline
[14] = dose: 200.0 mg/kg/injection, schedule: Q01DX001 (ip), vehicle: saline
[15] = dose: 200.0 mg/kg/injection, schedule: Q01DX009 (ip), vehicle: Klucel (hydroxypropylcellulose) (HPC)

NS(=O)(=O)c1ncnc2nc[nH]c12
T/C (dose: 5.0 mg/kg/injection, schedule: Q01DX Z (ip), vehicle: methylcellulose (MC)): 108 % of control | T/C (dose: 10.0 mg/kg/injection, schedule: Q01DX Z (ip), vehicle: methylcellulose (MC)): 109 % of control | T/C (dose: 22.0 mg/kg/injection, schedule: Q01DX001 (ip), vehicle: carboxymethylcellulose (CMC)): 109 % of control and 117 % of control | T/C (dose: 22.0 mg/kg/injection, schedule: Q01DX Z (ip), vehicle: carboxymethylcellulose (CMC)): 124 % of control | T/C (dose: 24.75 mg/kg/injection, schedule: Q01DX009 (ip), vehicle: saline): 121 % of control | T/C (dose: 25.0 mg/kg/injection, schedule: Q04DX003 (ip), vehicle: saline): 117 % of control | T/C (dose: 30.0 mg/kg/injection, schedule: Q04DX003 (ip), vehicle: saline): 121 % of control | T/C (dose: 33.0 mg/kg/injection, schedule: Q01DX001 (ip), vehicle: carboxymethylcellulose (CMC)): 107 % of control and 109 % of control | T/C (dose: 33.0 mg/kg/injection, schedule: Q01DX Z (ip), vehicle: carboxymethylcellulose (CMC)): 120 % of control | T/C [1]: 119 % of control | T/C (dose: 50.0 mg/kg/injection, schedule: Q01DX001 (ip), vehicle: carboxymethylcellulose (CMC)): 114 % of control and 119 % of control | T/C (dose: 50.0 mg/kg/injection, schedule: Q04DX003 (ip), vehicle: saline): 120 % of control | T/C (dose: 66.0 mg/kg/injection, schedule: Q04DX003 (ip), vehicle: saline): 114 % of control | T/C (dose: 75.0 mg/kg/injection, schedule: Q01DX001 (ip), vehicle: carboxymethylcellulose (CMC)): 117 % of control | T/C (dose: 75.0 mg/kg/injection, schedule: Q01DX009 (ip), vehicle: saline with Tween-80): 101 % of control | T/C (dose: 75.0 mg/kg/injection, schedule: Q01DX Z (ip), vehicle: carboxymethylcellulose (CMC)): 152 % of control and 159 % of control and 165 % of control | T/C [2]: 115 % of control | T/C (dose: 114.0 mg/kg/injection, schedule: Q01DX Z (ip), vehicle: carboxymethylcellulose (CMC)): 93 % of control | T/C (dose: 200.0 mg/kg/injection, schedule: Q01DX Z (ip), vehicle: methylcellulose (MC)): 113 % of control

OC1C2C=CC1C1C=CC1=CC2 (stereo unspecified)
T/C (dose: 50.0 mg/kg/injection, schedule: Q01DX001 (ip), vehicle: saline with Tween-80): 103 % of control | T/C [3]: 108 % of control | T/C [4]: 98 % of control

CCNP(=S)(SCC)SCC
T/C [5]: 96 % of control | T/C [6]: 89 % of control | T/C [7]: 101 % of control

CCCCOC(=O)CC(=O)OCCCC
T/C [8]: 96 % of control | T/C (dose: 100.0 mg/kg/injection, schedule: Q04DX003 (ip), vehicle: Klucel (hydroxypropylcellulose) (HPC)): 88 % of control | T/C (dose: 200.0 mg/kg/injection, schedule: Q04DX003 (ip), vehicle: Klucel (hydroxypropylcellulose) (HPC)): 95 % of control | T/C [9]: 86 % of control | T/C (dose: 400.0 mg/kg/injection, schedule: Q04DX003 (ip), vehicle: Klucel (hydroxypropylcellulose) (HPC)): 97 % of control

O=S(=O)(F)c1cc(Cl)ccc1CBr
T/C (dose: 25.0 mg/kg/injection, schedule: Q04DX002 (ip), vehicle: saline with Tween-80): 96 % of control | T/C (dose: 50.0 mg/kg/injection, schedule: Q04DX002 (ip), vehicle: saline with Tween-80): 100 % of control | T/C [5]: 93 % of control | T/C [6]: 104 % of control | T/C [7]: 101 % of control

c1cc[c]([Bi]([c]2ccccc2)[c]2ccccc2)cc1
T/C (dose: 50.0 mg/kg/injection, schedule: Q01DX001 (ip), vehicle: other): 95 % of control | T/C (dose: 100.0 mg/kg/injection, schedule: Q01DX001 (ip), vehicle: other): 97 % of control | T/C [10]: 97 % of control | T/C (dose: 200.0 mg/kg/injection, schedule: Q01DX001 (ip), vehicle: other): 97 % of control | T/C [11]: 102 % of control | T/C (dose: 400.0 mg/kg/injection, schedule: Q01DX001 (ip), vehicle: other): 97 % of control | T/C [12]: 103 % of control

Cc1ccc(C(C#N)c2ccc(N)cc2)cc1 (stereo unspecified)
T/C [13]: 98 % of control | T/C [2]: 101 % of control | T/C [14]: 101 % of control

COC(=O)CCC(=O)Nc1ccccc1
T/C [10]: 101 % of control | T/C [11]: 95 % of control | T/C [12]: 95 % of control

CC12CCC(C/C1=N\N=C(N)N)C2(C)C (stereo unspecified)
T/C (dose: 9.37 mg/kg/injection, schedule: Q01DX009 (ip), vehicle: saline): 97 % of control | T/C (dose: 18.75 mg/kg/injection, schedule: Q01DX009 (ip), vehicle: saline): 96 % of control | T/C (dose: 18.75 mg/kg/injection, schedule: Q04DX003 (ip), vehicle: saline): 102 % of control | T/C [1]: 102 % of control | T/C (dose: 37.5 mg/kg/injection, schedule: Q04DX003 (ip), vehicle: saline): 94 % of control | T/C (dose: 75.0 mg/kg/injection, schedule: Q01DX001 (ip), vehicle: saline): 105 % of control | T/C (dose: 75.0 mg/kg/injection, schedule: Q04DX003 (ip), vehicle: saline): 88 % of control

CCS(=O)(=O)/C=C(\C(=O)c1ccccc1)c1ccccc1
T/C [8]: 98 % of control | T/C [15]: 97 % of control | T/C [9]: 93 % of control

Oc1ccccc1C=NCCN1CC1.Oc1ccccc1C=NCCN1CC1.[Cu]
T/C (dose: 6.25 mg/kg/injection, schedule: Q01DX001 (ip), vehicle: Klucel (hydroxypropylcellulose) (HPC)): 88 % of control | T/C (dose: 12.5 mg/kg/injection, schedule: Q01DX001 (ip), vehicle: Klucel (hydroxypropylcellulose) (HPC)): 95 % of control | T/C (dose: 25.0 mg/kg/injection, schedule: Q01DX001 (ip), vehicle: Klucel (hydroxypropylcellulose) (HPC)): 95 % of control

CC(C)(C)COC(=O)c1ccccc1
T/C (dose: 100.0 mg/kg/injection, schedule: Q01DX001 (ip), vehicle: carboxymethylcellulose (CMC)): 102 % of control | T/C (dose: 200.0 mg/kg/injection, schedule: Q01DX001 (ip), vehicle: carboxymethylcellulose (CMC)): 91 % of control | T/C (dose: 400.0 mg/kg/injection, schedule: Q01DX001 (ip), vehicle: carboxymethylcellulose (CMC)): 91 % of control

CCC(CO)NC(=O)/C=C/c1ccccc1Cl (stereo unspecified)
T/C [3]: 95 % of control | T/C [4]: 100 % of control | T/C (dose: 400.0 mg/kg/injection, schedule: Q01DX001 (ip), vehicle: saline with Tween-80): 92 % of control

CC(C)c1cc(C(C)C)n2nc(N)nc2n1
T/C (dose: 100.0 mg/kg/injection, schedule: Q01DX009 (ip), vehicle: saline with Tween-80): 96 % of control | T/C (dose: 200.0 mg/kg/injection, schedule: Q01DX009 (ip), vehicle: saline with Tween-80): 102 % of control | T/C (dose: 400.0 mg/kg/injection, schedule: Q01DX009 (ip), vehicle: saline with Tween-80): 105 % of control

Cc1cc(C[P+](c2ccccc2)(c2ccccc2)c2ccccc2)c(C[P+](c2ccccc2)(c2ccccc2)c2ccccc2)cc1C
T/C (dose: 1.5 mg/kg/injection, schedule: Q04DX003 (ip), vehicle: saline): 104 % of control | T/C (dose: 3.0 mg/kg/injection, schedule: Q01DX009 (ip), vehicle: saline): 97 % of control | T/C (dose: 3.0 mg/kg/injection, schedule: Q04DX003 (ip), vehicle: saline): 106 % of control | T/C (dose: 6.0 mg/kg/injection, schedule: Q01DX009 (ip), vehicle: saline): 94 % of control | T/C (dose: 6.0 mg/kg/injection, schedule: Q04DX003 (ip), vehicle: saline): 98 % of control

O=C(Nc1cccc2ccccc12)c1cccc([N+](=O)[O-])c1C(=O)O
T/C (dose: 100.0 mg/kg/injection, schedule: Q04DX002 (ip), vehicle: Klucel (hydroxypropylcellulose) (HPC)): 99 % of control | T/C (dose: 200.0 mg/kg/injection, schedule: Q04DX002 (ip), vehicle: Klucel (hydroxypropylcellulose) (HPC)): 92 % of control | T/C (dose: 400.0 mg/kg/injection, schedule: Q04DX002 (ip), vehicle: Klucel (hydroxypropylcellulose) (HPC)): 96 % of control

c1ccc(C/C(N=Nc2ccccc2)=N\Nc2ccccc2)cc1
T/C (dose: 50.0 mg/kg/injection, schedule: Q01DX009 (ip), vehicle: Klucel (hydroxypropylcellulose) (HPC)): 92 % of control | T/C [8]: 92 % of control | T/C [15]: 91 % of control | T/C [9]: 105 % of control

O=C(CCCC(=O)N/N=C/c1ccc(O)cc1O)N/N=C\c1ccc(O)cc1O
T/C [13]: 90 % of control | T/C [2]: 96 % of control | T/C [14]: 96 % of control | T/C (dose: 400.0 mg/kg/injection, schedule: Q01DX001 (ip), vehicle: saline): 93 % of control
